Laboratory results as given in patent publication US20150239889A1, “PYRAZOLOPYRIMIDINE COMPOUND” (MITSUBISHI TANABE PHARMA CORPORATION, priority 2012, published 2015).

What was measured:
human HIF-PHD2 = target: T1, human HIF-PHD2 (Homo sapiens, UniProt Q9GZT9); assay: HIF-PHD inhibition assay (fluorescence polarization), human HIF-PHD2; format: biochemical; conditions: 2-oxoglutaric acid 3.33 μmol/L
T1 construct: purchased CrystalGenomics Ltd
Description: (§1) The activity of the test compound to inhibit human HIF-PHD2 and human HIF-PHD3 was determined.
(§2) The value of enzyme activity was calculated by subtracting the value of fluorescence polarization before addition of the enzyme from the value of fluorescence polarization after addition of enzyme (mP value).
(§3) FAM: 5′-fluoresceinamide ACA: aminocaproic acid

human HIF-PHD3 = target: T2, human HIF-PHD3 (Homo sapiens, UniProt Q9H6Z9); assay: HIF-PHD inhibition assay (fluorescence polarization), human HIF-PHD3; format: biochemical; conditions: 2-oxoglutaric acid 166 μmol/L
T2 construct: purchased CrystalGenomics Ltd
Description: as §1, §2, §3

T2 sequence (Q9H6Z9 whole entry): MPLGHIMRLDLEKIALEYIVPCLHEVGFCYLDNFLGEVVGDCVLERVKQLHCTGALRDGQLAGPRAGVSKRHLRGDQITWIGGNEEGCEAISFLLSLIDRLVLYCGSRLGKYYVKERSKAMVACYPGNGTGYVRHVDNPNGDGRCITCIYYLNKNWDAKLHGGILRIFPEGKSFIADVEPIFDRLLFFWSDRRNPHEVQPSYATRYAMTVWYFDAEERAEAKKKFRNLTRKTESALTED
T1 sequence (Q9GZT9 2-426 limits assumed): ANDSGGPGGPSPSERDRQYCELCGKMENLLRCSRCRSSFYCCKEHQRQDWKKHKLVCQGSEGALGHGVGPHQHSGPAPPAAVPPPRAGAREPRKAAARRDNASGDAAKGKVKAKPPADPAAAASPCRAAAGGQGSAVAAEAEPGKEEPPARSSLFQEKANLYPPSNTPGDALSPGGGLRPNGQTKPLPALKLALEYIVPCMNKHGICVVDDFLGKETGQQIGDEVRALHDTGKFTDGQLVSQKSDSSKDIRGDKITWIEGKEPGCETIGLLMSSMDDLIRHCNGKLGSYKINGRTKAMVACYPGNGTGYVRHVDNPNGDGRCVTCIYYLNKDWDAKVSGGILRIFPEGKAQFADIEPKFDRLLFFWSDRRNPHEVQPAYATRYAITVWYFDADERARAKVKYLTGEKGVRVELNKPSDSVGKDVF

IC50 (human HIF-PHD2) [nM] | IC50 (human HIF-PHD3) [nM] | Structure (SMILES)
61 | 610 | Cc1ccc([C@@H](C)n2ncc3nc(-n4cc(C(=O)O)cn4)nc(O)c32)cc1C(F)(F)F [Example 277]
120 | 420 | Cc1ccc([C@H](C)n2ncc3nc(-n4cc(C(=O)O)cn4)nc(O)c32)cc1C(F)(F)F [Example 278]
120 | 560 | C[C@@H](c1cccc(Cl)c1F)n1ncc2nc(-n3cc(C(=O)O)cn3)nc(O)c21 [Example 279]
62 | 850 | C[C@H](c1ccc(C(F)(F)F)c(F)c1)n1ncc2nc(-n3cc(C(=O)O)cn3)nc(O)c21 [Example 280]
20 | 450 | C[C@@H](c1ccc(C(F)(F)F)c(F)c1)n1ncc2nc(-n3cc(C(=O)O)cn3)nc(O)c21 [Example 281]
77 | 1400 | C[C@@H](c1cc(Cl)ccc1F)n1ncc2nc(-n3cc(C(=O)O)cn3)nc(O)c21 [Example 282]
68 | > 3000 | Cc1ccc(C)c([C@H](C)n2ncc3nc(-n4cc(C(=O)O)cn4)nc(O)c32)c1 [Example 283]
150 | 830 | C[C@H](c1ccc(C(F)(F)F)cc1)n1ncc2nc(-n3cc(C(=O)O)cn3)nc(O)c21 [Example 284]
76 | 870 | Cc1ccc(C(F)(F)F)cc1[C@@H](C)n1ncc2nc(-n3cc(C(=O)O)cn3)nc(O)c21 [Example 285]
96 | 820 | Cc1ccc(C(F)(F)F)cc1[C@H](C)n1ncc2nc(-n3cc(C(=O)O)cn3)nc(O)c21 [Example 286]
48 | 840 | Cc1ccc(F)cc1[C@H](C)n1ncc2nc(-n3cc(C(=O)O)cn3)nc(O)c21 [Example 287]
180 | 480 | C[C@@H](c1cc(C(F)(F)F)ccc1F)n1ncc2nc(-n3cc(C(=O)O)cn3)nc(O)c21 [Example 288]
30 | 210 | C[C@@H](c1ccc2c(c1)CCC2)n1ncc2nc(-n3cc(C(=O)O)cn3)nc(O)c21 [Example 289]
38 | 400 | C[C@@H](c1ccc2c(c1)CCCC2)n1ncc2nc(-n3cc(C(=O)O)cn3)nc(O)c21 [Example 290]
72 | 730 | Cc1ccc(C(C)n2ncc3nc(-n4cc(C(=O)O)cn4)nc(O)c32)cc1 (centres unmarked) [Example 291]
61 | 510 | Cc1cc(C(C)n2ncc3nc(-n4cc(C(=O)O)cn4)nc(O)c32)ccc1Cl (centres unmarked) [Example 293]
64 | 700 | Cc1ccc(C(C)n2ncc3nc(-n4cc(C(=O)O)cn4)nc(O)c32)cc1F (centres unmarked) [Example 295]
66 | 660 | Cc1ccc(C(C)n2ncc3nc(-n4cc(C(=O)O)cn4)nc(O)c32)cc1Cl (centres unmarked) [Example 297]
79 | 700 | Cc1cc(F)cc(C(C)n2ncc3nc(-n4cc(C(=O)O)cn4)nc(O)c32)c1 (centres unmarked) [Example 299]
54 | 710 | Cc1cc(C(C)n2ncc3nc(-n4cc(C(=O)O)cn4)nc(O)c32)ccc1F (centres unmarked) [Example 301]
78 | 610 | CC(c1ccc(F)c(C(F)(F)F)c1)n1ncc2nc(-n3cc(C(=O)O)cn3)nc(O)c21 (centres unmarked) [Example 303]
59 | 590 | CC(c1cc(F)cc(Cl)c1)n1ncc2nc(-n3cc(C(=O)O)cn3)nc(O)c21 (centres unmarked) [Example 305]

IC50 (human HIF-PHD2) [nM] | IC50 (human HIF-PHD3) [nM] | Structure (SMILES)
45 | 500 | CC(c1cc(Cl)cc(Cl)c1)n1ncc2nc(-n3cc(C(=O)O)cn3)nc(O)c21 (centres unmarked) [Example 307]
94 | 680 | Cc1cc(C)cc(C(C)n2ncc3nc(-n4cc(C(=O)O)cn4)nc(O)c32)c1 (centres unmarked) [Example 309]
67 | 770 | Cc1ccc(Cl)cc1C(C)n1ncc2nc(-n3cc(C(=O)O)cn3)nc(O)c21 (centres unmarked) [Example 311]
40 | 900 | Cc1ccc(F)c(C(C)n2ncc3nc(-n4cc(C(=O)O)cn4)nc(O)c32)c1 (centres unmarked) [Example 313]
45 | 880 | CC(c1ccc(Cl)c(C(F)(F)F)c1)n1ncc2nc(-n3cc(C(=O)O)cn3)nc(O)c21 (centres unmarked) [Example 315]
19 | 520 | C[C@@H](c1ccc(OC(F)(F)F)c(F)c1)n1ncc2nc(-n3cc(C(=O)O)cn3)nc(O)c21 [Example 317]
16 | 290 | C[C@@H](c1ccc(OC(F)(F)F)c(Cl)c1)n1ncc2nc(-n3cc(C(=O)O)cn3)nc(O)c21 [Example 318]
85 | 520 | CC(c1cc(Cl)c(Cl)s1)n1ncc2nc(-n3cc(C(=O)O)cn3)nc(O)c21 (centres unmarked) [Example 319]
11 | 190 | O=C(O)c1cnn(-c2nc(O)c3c(cnn3Cc3ccc(C4CC4)cc3)n2)c1 [Example 321]
48 | 180 | CCC(c1ccc(Cl)cc1)n1ncc2nc(-n3cc(C(=O)O)cn3)nc(O)c21 (centres unmarked) [Example 322]
95 | 650 | CCC(c1ccc(F)cc1)n1ncc2nc(-n3cc(C(=O)O)cn3)nc(O)c21 (centres unmarked) [Example 324]
60 | 530 | CCC(c1ccc(C)cc1)n1ncc2nc(-n3cc(C(=O)O)cn3)nc(O)c21 (centres unmarked) [Example 328]
36 | 580 | CCC(c1ccc(F)c(F)c1)n1ncc2nc(-n3cc(C(=O)O)cn3)nc(O)c21 (centres unmarked) [Example 330]
45 | 550 | CCC(c1cc(F)cc(F)c1)n1ncc2nc(-n3cc(C(=O)O)cn3)nc(O)c21 (centres unmarked) [Example 332]
260 | 2500 | CCC(c1cc(C(F)(F)F)cc(C(F)(F)F)c1)n1ncc2nc(-n3cc(C(=O)O)cn3)nc(O)c21 (centres unmarked) [Example 334]
23 | 170 | CC[C@@H](c1ccc(Cl)c(Cl)c1)n1ncc2nc(-n3cc(C(=O)O)cn3)nc(O)c21 [Example 336]
32 | 420 | CCC(c1ccc(F)c(Cl)c1)n1ncc2nc(-n3cc(C(=O)O)cn3)nc(O)c21 (centres unmarked) [Example 337]
36 | 370 | CCC(c1cc(F)cc(Cl)c1)n1ncc2nc(-n3cc(C(=O)O)cn3)nc(O)c21 (centres unmarked) [Example 339]
52 | 790 | CCC(c1cccc(C(F)(F)F)c1)n1ncc2nc(-n3cc(C(=O)O)cn3)nc(O)c21 (centres unmarked) [Example 341]
92 | 610 | CC[C@@H](c1cccc(Cl)c1)n1ncc2nc(-n3cc(C(=O)O)cn3)nc(O)c21 [Example 343]
25 | 530 | CC[C@@H](c1ccc(F)c(C)c1)n1ncc2nc(-n3cc(C(=O)O)cn3)nc(O)c21 [Example 344]
53 | 830 | CC[C@@H](c1ccc(C)c(F)c1)n1ncc2nc(-n3cc(C(=O)O)cn3)nc(O)c21 [Example 345]

IC50 (human HIF-PHD2) [nM] | IC50 (human HIF-PHD3) [nM] | Structure (SMILES)
65 | 530 | CCC(c1ccc(Cl)c(C)c1)n1ncc2nc(-n3cc(C(=O)O)cn3)nc(O)c21 (centres unmarked) [Example 346]
49 | 530 | CCC(c1ccc(Cl)cc1F)n1ncc2nc(-n3cc(C(=O)O)cn3)nc(O)c21 (centres unmarked) [Example 350]
32 | 420 | CC[C@@H](c1ccc(OC(F)(F)F)c(F)c1)n1ncc2nc(-n3cc(C(=O)O)cn3)nc(O)c21 [Example 352]
14 | 490 | CC[C@@H](c1ccc(OC(F)(F)F)c(Cl)c1)n1ncc2nc(-n3cc(C(=O)O)cn3)nc(O)c21 [Example 353]
140 | 680 | CC(C)C(c1ccc(F)cc1)n1ncc2nc(-n3cc(C(=O)O)cn3)nc(O)c21 (centres unmarked) [Example 354]
53 | 710 | CC(C)C(c1ccc(C(F)(F)F)cc1)n1ncc2nc(-n3cc(C(=O)O)cn3)nc(O)c21 (centres unmarked) [Example 356]
45 | 700 | CC(C)C(c1ccc(F)c(F)c1)n1ncc2nc(-n3cc(C(=O)O)cn3)nc(O)c21 (centres unmarked) [Example 358]
64 | 770 | CC(C)C(c1cc(F)cc(F)c1)n1ncc2nc(-n3cc(C(=O)O)cn3)nc(O)c21 (centres unmarked) [Example 360]
100 | 1500 | CC(C)C(c1cccc(C(F)(F)F)c1)n1ncc2nc(-n3cc(C(=O)O)cn3)nc(O)c21 (centres unmarked) [Example 362]
39 | 780 | O=C(O)c1cnn(-c2nc(O)c3c(cnn3C(c3ccc(Cl)cc3)C3CC3)n2)c1 (centres unmarked) [Example 364]
120 | 540 | O=C(O)c1cnn(-c2nc(O)c3c(cnn3C(c3ccc(F)cc3)C3CC3)n2)c1 (centres unmarked) [Example 366]
72 | 410 | Cc1ccc(C(C2CC2)n2ncc3nc(-n4cc(C(=O)O)cn4)nc(O)c32)cc1 (centres unmarked) [Example 368]
56 | 380 | O=C(O)c1cnn(-c2nc(O)c3c(cnn3C(c3ccc(F)c(Cl)c3)C3CC3)n2)c1 (centres unmarked) [Example 370]
45 | 720 | O=C(O)c1cnn(-c2nc(O)c3c(cnn3C(c3cc(F)cc(F)c3)C3CC3)n2)c1 (centres unmarked) [Example 372]
51 | 630 | O=C(O)c1cnn(-c2nc(O)c3c(cnn3C(c3cccc(Cl)c3)C3CC3)n2)c1 (centres unmarked) [Example 374]
72 | 770 | Cc1cc(C(C2CC2)n2ncc3nc(-n4cc(C(=O)O)cn4)nc(O)c32)ccc1F (centres unmarked) [Example 376]
15 | 410 | C[C@@H](C1CCC(C)(C)CC1)n1ncc2nc(-n3cc(C(=O)O)cn3)nc(O)c21 [Example 382]
110 | 570 | C[C@H](C1CCC(C)(C)CC1)n1ncc2nc(-n3cc(C(=O)O)cn3)nc(O)c21 [Example 383]
60 | 500 | C[C@H]1CC[C@H](n2ncc3nc(-n4cc(C(=O)O)cn4)nc(O)c32)CC1 [Example 384]
130 | 380 | C[C@H]1CC[C@@H](n2ncc3nc(-n4cc(C(=O)O)cn4)nc(O)c32)CC1 [Example 385]
